# Laboratory results reported in ChEMBL document CHEMBL5543131, “Discovery of Highly Potent Solute Carrier 13 Member 5 (SLC13A5) Inhibitors for the Treatment of Hyperlipidemia” (J Med Chem, 2024).
# How the values were obtained:
# [1] = Oral bioavailability in Sprague-Dawley rat at 50 mg/kg measured after 24 hrs by LC-MS/MS analysis; assay type: ADME, organism-based; settings: in vivo
# [2] = Clearance in Sprague-Dawley rat at 5 mg/kg, iv measured after 24 hrs by LC-MS/MS analysis; assay type: ADME, organism-based; settings: in vivo
# [3] = AUC (0 to infinity) in Sprague-Dawley rat at 50 mg/kg, po measured after 24 hrs by LC-MS/MS analysis; assay type: ADME, organism-based; settings: in vivo
# [4] = Half-life in Sprague-Dawley rat at 5 mg/kg, iv measured after 24 hrs by LC-MS/MS analysis; assay type: ADME, organism-based; settings: in vivo
# [5] = Clearance in Sprague-Dawley rat at 50 mg/kg, po measured after 24 hrs by LC-MS/MS analysis; assay type: ADME, organism-based; settings: in vivo
# [6] = Cmax in Sprague-Dawley rat at 50 mg/kg, po measured after 24 hrs by LC-MS/MS analysis; assay type: ADME, organism-based; settings: in vivo
# [7] = Half-life in Sprague-Dawley rat at 50 mg/kg, po measured after 24 hrs by LC-MS/MS analysis; assay type: ADME, organism-based; settings: in vivo
# [8] = AUC (0 to infinity) in Sprague-Dawley rat at 5 mg/kg, iv measured after 24 hrs by LC-MS/MS analysis; assay type: ADME, organism-based; settings: in vivo
# [9] = Volume of distribution in Sprague-Dawley rat at 5 mg/kg, iv measured after 24 hrs by LC-MS/MS analysis; assay type: ADME, organism-based; settings: in vivo
# [10] = Volume of distribution in Sprague-Dawley rat at 50 mg/kg, po measured after 24 hrs by LC-MS/MS analysis; assay type: ADME, organism-based; settings: in vivo
# [11] = target: Na(+)/citrate cotransporter (Homo sapiens, UniProt Q86YT5); experiment: Inhibition of human SLC13A5 transfected in HEK293T cells incubated for 30 mins by D4-citrate uptake assay; assay type: cell-based
# [12] = Drug accumulation in Sprague-Dawley rat liver at 5 mg/kg, po measured after 2 hrs by LC-MS/MS analysis; assay type: ADME, organism-based; settings: in vivo
# [13] = Acute toxicity in C57BL/6J mouse at 50 to 300 mg/kg measured after 7 days; assay type: organism-based; settings: in vivo, 168 h, dose 50-300 mg/kg, time 7 day
# Huh-7 = experiment: Cytotoxicity against human Huh-7 cells; assay type: toxicity, cell-based
# [14] = Drug accumulation in Sprague-Dawley rat brain at 5 mg/kg, po measured after 2 hrs by LC-MS/MS analysis; assay type: ADME, organism-based; settings: in vivo
# [15] = Metabolic stability in human liver microsome assessed as compound remaining measured after 2 hrs in presence of NADPH by LC-MS/MS analysis; assay type: ADME; settings: microsomes
# HEK-293T = experiment: Cytotoxicity against HEK293T cells; assay type: toxicity, cell-based; settings: human
# [16] = Drug accumulation in Sprague-Dawley rat prostate gland at 5 mg/kg, po measured after 2 hrs by LC-MS/MS analysis; assay type: ADME, organism-based; settings: in vivo
# [17] = Tmax in Sprague-Dawley rat at 50 mg/kg, po measured after 24 hrs by LC-MS/MS analysis; assay type: ADME, organism-based; settings: in vivo
# [18] = Metabolic stability in human plasma assessed as compound remaining measured after 2 hrs by LC-MS/MS analysis; assay type: ADME, cell-free; settings: read-out: Stability
# [19] = Metabolic stability in rat liver microsome assessed as compound remaining measured after 2 hrs in presence of NADPH by LC-MS/MS analysis; assay type: ADME; settings: liver microsomes, read-out: Stability
# [20] = Toxicity in C57BL/6J mouse assessed as animal death at 100 mg/kg; assay type: organism-based; settings: in vivo
# HepG2 = experiment: Cytotoxicity against human HepG2 cells; assay type: toxicity, cell-based
# Chain of Na(+)/citrate cotransporter (Q86YT5 whole entry): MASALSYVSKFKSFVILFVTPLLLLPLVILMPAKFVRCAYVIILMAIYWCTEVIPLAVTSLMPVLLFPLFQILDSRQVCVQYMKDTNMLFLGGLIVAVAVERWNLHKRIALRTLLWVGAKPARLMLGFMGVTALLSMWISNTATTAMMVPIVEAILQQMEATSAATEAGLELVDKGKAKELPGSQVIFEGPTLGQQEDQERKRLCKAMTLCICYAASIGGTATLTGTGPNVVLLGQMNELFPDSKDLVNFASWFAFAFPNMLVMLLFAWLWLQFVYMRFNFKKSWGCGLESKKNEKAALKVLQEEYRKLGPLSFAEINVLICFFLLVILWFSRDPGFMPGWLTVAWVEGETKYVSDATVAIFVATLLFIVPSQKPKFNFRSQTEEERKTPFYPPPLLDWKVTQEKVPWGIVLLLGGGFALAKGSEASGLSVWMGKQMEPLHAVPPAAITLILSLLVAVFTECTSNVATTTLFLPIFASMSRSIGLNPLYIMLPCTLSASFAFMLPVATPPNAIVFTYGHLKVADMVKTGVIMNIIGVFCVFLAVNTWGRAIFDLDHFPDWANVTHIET
smiles,measurement,setting,value
CC(C)(C)c1ccc(CC[C@@](O)(CC(=O)O)C(=O)O)cc1,bioavailability,[1],1.83%
same,clearance,[2],2 mL/min/kg
same,AUC(0-inf),[3],10600 ng·h/mL
same,half-life,[4],2.61 h
same,CL/F,[5],80.8 mL/min/kg
same,Cmax,[6],1.36 µg/mL
same,half-life,[7],12.4 h
same,AUC(0-inf),[8],40400 ng·h/mL
same,Vd,[9],0.69 L/kg
same,Vd,[10],83.96 L/kg
O=C(O)CC(O)(CCc1ccc(-c2cccc3c2NCCC3)cc1)C(=O)O (stereo unspecified),IC50,[11],350 nM
O=C(O)CC(O)(CCc1ccc(-c2cccc(C(F)(F)F)c2)cc1)C(=O)O (stereo unspecified),IC50,[11],150 nM
CCOc1cccc(-c2ccc(CCC(O)(CC(=O)O)C(=O)O)cc2)c1 (stereo unspecified),IC50,[11],310 nM
O=C(O)CC(O)(CCc1ccc(-c2ccn[nH]2)cc1)C(=O)O (stereo unspecified),IC50,[11],1180 nM
O=C(O)CC(O)(CCc1ccc(-c2ccccc2)cc1)C(=O)O (stereo unspecified),Drug uptake,[12],Active
same,bioavailability,[1],48.7%
same,Activity,[13],Non-Toxic
same,clearance,[2],0.667 mL/min/kg
same,AUC(0-inf),[3],705000 ng·h/mL
same,half-life,[4],0.69 h
same,CL/F,[5],1.17 mL/min/kg
same,Activity,Huh-7,Non-Toxic
same,Drug uptake,[14],Not Active
same,Stability,[15],Stable
same,Activity,HEK-293T,Non-Toxic
same,Cmax,[6],288 µg/mL
same,Drug uptake,[16],Active
same,Tmax,[17],0.76 h
same,IC50,[11],67 nM
same,half-life,[7],1.09 h
same,AUC(0-inf),[8],145000 ng·h/mL
same,remaining at 2 h,[18],> 60%
same,Vd,[9],0.03 L/kg
same,remaining at 2 h,[19],> 60%
same,Activity,[20],Non-Toxic
same,Vd,[10],0.11 L/kg
same,Activity,HepG2,Non-Toxic
COc1ccccc1-c1ccc(CCC(O)(CC(=O)O)C(=O)O)cc1 (stereo unspecified),IC50,[11],290 nM
CC(C)Oc1cccc(-c2ccc(CCC(O)(CC(=O)O)C(=O)O)cc2)c1 (stereo unspecified),IC50,[11],440 nM
CCn1nccc1-c1ccc(CCC(O)(CC(=O)O)C(=O)O)cc1 (stereo unspecified),IC50,[11],130 nM
same,remaining at 2 h,[18],> 60%
same,remaining at 2 h,[19],> 60%
COc1cccc(-c2ccc(CCC(O)(CC(=O)O)C(=O)O)cc2)c1 (stereo unspecified),IC50,[11],340 nM
O=C(O)CC(O)(CCc1ccc(-c2cccc(OC(F)(F)F)c2)cc1)C(=O)O (stereo unspecified),IC50,[11],190 nM
O=C(O)CC(O)(CCc1ccc(-c2ccccc2C(F)(F)F)cc1)C(=O)O (stereo unspecified),IC50,[11],210 nM
O=C(O)CC(O)(CCc1ccc2ccccc2c1)C(=O)O (stereo unspecified),IC50,[11],73 nM
same,remaining at 2 h,[18],> 60%
same,remaining at 2 h,[19],> 60%
COc1cc(-c2ccc(CCC(O)(CC(=O)O)C(=O)O)cc2)ccn1 (stereo unspecified),IC50,[11],860 nM
O=C(O)CC(O)(CCc1ccc(N2CCOCC2)cc1)C(=O)O (stereo unspecified),IC50,[11],860 nM
O=C(O)CC(O)(CCc1nc2ccccc2s1)C(=O)O (stereo unspecified),IC50,[11],160 nM
same,remaining at 2 h,[18],> 60%
same,remaining at 2 h,[19],> 60%
Cn1nccc1-c1ccc(CCC(O)(CC(=O)O)C(=O)O)cc1 (stereo unspecified),IC50,[11],1970 nM
O=C(O)CC(O)(CCc1ccc(-c2ccc3c(c2)OCO3)cc1)C(=O)O (stereo unspecified),IC50,[11],110 nM
CCCOc1cccc(-c2ccc(CCC(O)(CC(=O)O)C(=O)O)cc2)c1 (stereo unspecified),IC50,[11],270 nM
